Data: publication PMC3433414, “Oral Administration of the Pimelic Diphenylamide HDAC Inhibitor HDACi 4b Is Unsuitable for Chronic Inhibition of HDAC Activity in the CNS In Vivo” (PLoS ONE, 2012)
Like-named read-outs stand apart in the source and are kept apart here.

Legend:
[1] = molecular target: T1, norepinephrine transporter (h) (Homo sapiens, UniProt P23975); test: Cerep binding, antagonist radioligand; conditions: read-out: % inhibition of control specific binding
T1 construct: purchased Cerep (Diversity Profile)
From the text: (§1) In addition to the HDAC profiling performed, we also queried 4b for any apparent potential off-target effects, which could complicate any finding of efficacy or adverse events in vivo due to ‘polypharmacy’. This was accomplished by screening against a ‘diversity panel’ of 72 binding and 29 enzyme assays, comprised of roughly equal numbers of selective central and peripheral therapeutically relevant targets (Cerep Diversity Profile). This panel included representative targets from diverse enzyme families, G protein coupled receptors, steroid nuclear receptors, voltage- and ligand-gated ion channels. While not totally inclusive, it is a useful tool for discovery compounds to assess their viability as proof of concept molecules to specifically query a particular target. 4b was initially screened at 10 µM in duplicate. The full set of results is provided as Table S1. […] This clean in vitro profile was considered acceptable to proceed to ADME and pharmacokinetic studies.

A1 (h) = molecular target: T2, A1 (h) (Homo sapiens, UniProt P30542); test: Cerep binding, antagonist radioligand; conditions: read-out: % inhibition of control specific binding
T2 construct: purchased Cerep (Diversity Profile)
From the text: as §1

[2] = Simulated gastric fluid stability; type: in vitro ADME
Method: Simulated gastric fluid (SGF), pH 1.2, was prepared containing 2 g/L sodium chloride, 3.2 g/L of pepsin, 0.7% (v/v) HCl. Gastric buffer, pH 1.2, was also prepared containing 2 g/L sodium chloride and 0.7% (v/v) HCl. Test compound (10 µM) was added to both fluids and samples were mixed at room temperature on an orbital shaker. At each time-point (0, 2 and 4 h) 50 µL of sample was added to 150 µL DMSO, mixed and analysed immediately. Samples were analysed by LC-UV (λ = 254 nm. The instrument responses (i.e. chromatographic peak areas) were referenced to the zero time-point samples (as 100%) in order to determine the percentage of compound remaining at each time-point.

HDAC9 = molecular target: T3, HDAC9 (Homo sapiens, UniProt Q9UKV0); test: Two-step fluorogenic deacetylase assay, recombinant HDAC9; type: biochemical; conditions: up to 50 µM
T3 construct: HDAC9 (αα 604–1066; cat # 50009); purchased BPS Bioscience (San Diego, CA) 50009
From the text: (§2) To assess the biochemical and cellular potency of 4b and its conversion products/metabolites, we utilized the two-step fluorogenic assay which measures the HDAC-mediated catalytic conversion of synthetic acetylated lysine substrates. In brief, on deacetylation of the substrates by HDAC activity, a protease site is unmasked which allows subsequent trypsin-mediated cleavage and release of the highly flourescent AMC molecules in a subsequent step of the assay. The substrates used were Lys_Ac_AMC (Bachem I-1875) for HDAC3 and (Ac)Arg-Gly-Lys(Ac) (Bachem I-1925) for HDAC1 and HDAC2. […] However, the relatively labile and sterically more demanding trifluoracetyl group is readily hydrolyzed by the catalytically less avid Class IIa enzymes, allowing measurement of Class IIa activity using the 2-step fluorogenic assay. […]
(§3) For evaluation of the class selectivity of the compounds, we assessed inhibition against purified recombinant human full length HDAC1 (cat# 50051), HDAC2 (cat# 50052), HDAC3-NcoR2 (cat# 50003) and HDAC8 (cat# 50008): as representative of Class I activity; catalytic domain HDAC4(αα 648–1057), HDAC5 (αα 657–1123; cat # 50005), HDAC7 (αα 518-end; cat # 50007) and HDAC9 (αα 604–1066; cat # 50009) activity: representing all Class IIa activity; and full length HDAC6 (cat#50006): representing Class IIb activity. […]

FXN = system: FXN; design: method as in PMID 16921367; conditions: cited from earlier work
HDAC7 = molecular target: T4, HDAC7 (Homo sapiens, UniProt Q8WUI4); test: Two-step fluorogenic deacetylase assay, recombinant HDAC7; type: biochemical; conditions: up to 50 µM
T4 construct: HDAC7 (αα 518-end; cat # 50007); purchased BPS Bioscience (San Diego, CA) 50007
From the text: as §2, §3

T1 sequence (P23975 whole entry): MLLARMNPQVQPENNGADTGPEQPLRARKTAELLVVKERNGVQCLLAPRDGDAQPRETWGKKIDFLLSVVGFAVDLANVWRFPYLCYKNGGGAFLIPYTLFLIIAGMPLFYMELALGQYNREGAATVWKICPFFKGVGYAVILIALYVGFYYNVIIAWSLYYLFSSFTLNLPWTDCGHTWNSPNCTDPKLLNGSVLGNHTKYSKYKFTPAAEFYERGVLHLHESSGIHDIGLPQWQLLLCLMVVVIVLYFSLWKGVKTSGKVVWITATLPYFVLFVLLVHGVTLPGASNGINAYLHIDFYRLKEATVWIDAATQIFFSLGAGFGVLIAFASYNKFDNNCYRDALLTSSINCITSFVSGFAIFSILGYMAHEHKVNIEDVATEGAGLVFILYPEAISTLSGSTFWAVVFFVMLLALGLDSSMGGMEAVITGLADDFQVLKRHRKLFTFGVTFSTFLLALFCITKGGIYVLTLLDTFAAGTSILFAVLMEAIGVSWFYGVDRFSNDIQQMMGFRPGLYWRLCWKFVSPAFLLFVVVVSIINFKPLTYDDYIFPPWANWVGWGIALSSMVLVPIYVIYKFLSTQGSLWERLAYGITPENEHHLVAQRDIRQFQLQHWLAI
T2 sequence (P30542 whole entry): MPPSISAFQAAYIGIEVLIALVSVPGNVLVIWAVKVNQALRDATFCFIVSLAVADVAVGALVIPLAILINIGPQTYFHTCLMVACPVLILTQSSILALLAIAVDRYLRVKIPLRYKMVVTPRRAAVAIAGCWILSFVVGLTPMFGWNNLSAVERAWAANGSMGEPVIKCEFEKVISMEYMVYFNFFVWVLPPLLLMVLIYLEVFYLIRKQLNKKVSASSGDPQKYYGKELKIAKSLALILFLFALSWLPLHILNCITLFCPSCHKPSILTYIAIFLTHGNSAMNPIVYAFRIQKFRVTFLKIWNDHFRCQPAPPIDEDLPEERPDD
T3 sequence (Q9UKV0 604-1066 isoform Q9UKV0-5): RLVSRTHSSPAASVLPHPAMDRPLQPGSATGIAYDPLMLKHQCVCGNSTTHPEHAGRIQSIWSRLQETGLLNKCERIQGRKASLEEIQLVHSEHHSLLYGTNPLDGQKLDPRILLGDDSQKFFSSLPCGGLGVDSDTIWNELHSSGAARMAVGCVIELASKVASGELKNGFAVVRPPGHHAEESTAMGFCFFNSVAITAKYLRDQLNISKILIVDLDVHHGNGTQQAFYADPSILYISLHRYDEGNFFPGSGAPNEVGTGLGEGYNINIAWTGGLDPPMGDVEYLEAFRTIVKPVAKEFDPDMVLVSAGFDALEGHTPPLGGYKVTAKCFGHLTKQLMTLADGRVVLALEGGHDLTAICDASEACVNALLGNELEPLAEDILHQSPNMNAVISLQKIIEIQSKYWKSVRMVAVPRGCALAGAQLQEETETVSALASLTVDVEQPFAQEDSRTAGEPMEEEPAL
T4 sequence (Q8WUI4 518-952 limits assumed): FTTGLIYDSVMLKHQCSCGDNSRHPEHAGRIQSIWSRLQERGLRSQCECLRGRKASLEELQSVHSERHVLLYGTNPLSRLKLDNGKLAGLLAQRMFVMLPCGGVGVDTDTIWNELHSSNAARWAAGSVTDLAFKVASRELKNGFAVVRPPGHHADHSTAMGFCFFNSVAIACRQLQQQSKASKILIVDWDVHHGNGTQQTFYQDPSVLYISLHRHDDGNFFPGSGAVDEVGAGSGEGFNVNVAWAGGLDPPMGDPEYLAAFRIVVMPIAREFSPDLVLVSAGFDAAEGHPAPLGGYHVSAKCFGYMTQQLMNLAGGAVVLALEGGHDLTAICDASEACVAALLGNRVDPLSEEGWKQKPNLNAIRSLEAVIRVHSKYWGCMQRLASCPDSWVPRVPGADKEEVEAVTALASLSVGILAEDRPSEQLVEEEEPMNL

Row | inhibition at 10 µM ([1]; 10 μM) [%] | inhibition at 10 µM (A1 (h); 10 μM) [%] | SMILES | inhibition at 10 µM [1] [%] | inhibition at 10 µM (A1 (h)) [%] | turnover in simulated gastric fluid ([2]; in 4 h) [%] | half-life at 10 µM ([2]; simulated gastric fluid (SGF), pH 1.2) [h] | activity against HDAC9 (HDAC9) | increase in FXN protein levels (FXN; at 2.5 µM) [fold] | enhancement of FXN mRNA (FXN; at 5 µM) [fold] | activity against HDAC7 (HDAC7)
1 | – | – | Nc1ccccc1NC(=O)CCCCCC(=O)Nc1ccccc1 [Compound 4b] | 0 | 7 | 5 | > 10 | No activity | 3.5 | 2.5 | No activity
2 | 30 | 9 | O=C(CCCCCc1nc2ccccc2[nH]1)Nc1ccccc1 [Compound C1, 6-(1-H-benzo[d]imidazol-2-yl)-N-phenylhexanamide] | – | – | – | – | – | – | – | –
